From ChEMBL document CHEMBL1145659, “The alkaloids of Corydalis meifolia” (J Nat Prod, 1983)
In brackets after ≈: the same amount, converted by molar mass.

Assays:
[1] = system: Ileum; experiment: Spasmolytic activity in isolated guinea pig ileum assessed as spasmogen-induced inhibition of smooth muscle contraction; format: functional, tissue-based; conditions: Cavia porcellus
[2] = system: Ileum; experiment: (§1) Spasmolytic activity in isolated guinea pig ileum assessed as spasmogen-induced inhibition of smooth muscle contraction at 10 ug; format: functional, Cavia porcellus; parameters: scale not given: the % may be the effect or the level left
[3] = system: Ileum; experiment: as §1; format: functional, Cavia porcellus; parameters: scale not given: the % may be the effect or the level left; remark: listed apart in the source

SMILES | Activity [1] | Activity [2] | Activity [3] | IC50 [1]
COc1cc2c(cc1OC)-c1c(C)c3ccc4c(c3c[n+]1CC2)OCO4.[Cl-] [DEHYDROCAVIDINE] | Dose-dependent effect | 20% | 40% | –
COc1cc2c(cc1OC)[C@H]1[C@@H](C)c3ccc4c(c3CN1CC2)OCO4 [CAVIDINE] | Dose-dependent effect | 84% | 100% | –
COc1cc2c(cc1OC)C1(C(=O)c3ccc4c(c3[C@H]1O)OCO4)N(C)CC2 (stereo partly drawn) [YENHUSOMIDINE] | Dose-dependent effect | 17% | 52% | 0.5 µg/mL (≈ 1.3 µM)
COc1cc2c(cc1OC)[C@@H]([C@H]1OC(=O)c3c1ccc1c3OCO1)N(C)CC2 [CORLUMINE] | Dose-dependent effect | 0% | 50% | –
